Values quoted from earlier work, collected in patent publication US20260138960A1, “A PROCESS FOR THE PREPARATION OF CRYSTALLINE FORM OF TAFAMIDIS” (BIOPHORE INDIA PHARMACEUTICALS PVT. LTD, priority 2022, published 2026).

Conditions: poorly soluble, but permeate biological membranes well

SMILES	biopharmaceutical classification system (BCS) class
O=C(O)c1ccc2nc(-c3cc(Cl)cc(Cl)c3)oc2c1 [Tafamidis, 2-(3,5-dichlorophenyl)-1,3-benzoxazole-6-carboxylic acid]	class II
CNC[C@H](O)[C@@H](O)[C@H](O)[C@H](O)CO.O=C(O)c1ccc2nc(-c3cc(Cl)cc(Cl)c3)oc2c1 [Tafamidis meglumine]	class II
